Source: patent publication US20240391936A1, “TETRAHYDROTHIENO PYRIDINE DERIVATIVES AS DDRS INHIBITORS” (CHIESI FARMACEUTICI S.P.A., priority 2021, published 2024)

Assays:
[1] = biological target: T1, DDR1 (Homo sapiens, UniProt Q08345); experiment: DDR1 binding assay (LanthaScreen Europium Kinase Binding assay); parameters: purchased Carna Biosciences; conditions: binding assay, 5 nM DDR1, 20 nM Kinase Tracer 178; Ki from IC50 by Cheng-Prusoff; read-out: Ki DDR1
Procedure, shortened: (§1)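 TR-FRET tracer-displacement format: 665/615 nm emission ratio (340 nm excitation) gave IC50 by 4-parameter fit, then Ki via Cheng-Prusoff. Each kinase at 5 nM with 2 nM Eu-anti-GST antibody and Tracer 178 (DDR1 20 nM, DDR2 10 nM), 1 h, room temperature, HEPES pH 7.5 buffer.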

[2] = biological target: T2, DDR2 (Homo sapiens, UniProt Q16832); experiment: DDR2 binding assay (LanthaScreen Europium Kinase Binding assay); parameters: purchased Life Technologies; conditions: binding assay, 5 nM DDR2, 10 nM Kinase Tracer 178; Ki from IC50 by Cheng-Prusoff; read-out: Ki DDR2
T2 sequence (Q16832 22-855): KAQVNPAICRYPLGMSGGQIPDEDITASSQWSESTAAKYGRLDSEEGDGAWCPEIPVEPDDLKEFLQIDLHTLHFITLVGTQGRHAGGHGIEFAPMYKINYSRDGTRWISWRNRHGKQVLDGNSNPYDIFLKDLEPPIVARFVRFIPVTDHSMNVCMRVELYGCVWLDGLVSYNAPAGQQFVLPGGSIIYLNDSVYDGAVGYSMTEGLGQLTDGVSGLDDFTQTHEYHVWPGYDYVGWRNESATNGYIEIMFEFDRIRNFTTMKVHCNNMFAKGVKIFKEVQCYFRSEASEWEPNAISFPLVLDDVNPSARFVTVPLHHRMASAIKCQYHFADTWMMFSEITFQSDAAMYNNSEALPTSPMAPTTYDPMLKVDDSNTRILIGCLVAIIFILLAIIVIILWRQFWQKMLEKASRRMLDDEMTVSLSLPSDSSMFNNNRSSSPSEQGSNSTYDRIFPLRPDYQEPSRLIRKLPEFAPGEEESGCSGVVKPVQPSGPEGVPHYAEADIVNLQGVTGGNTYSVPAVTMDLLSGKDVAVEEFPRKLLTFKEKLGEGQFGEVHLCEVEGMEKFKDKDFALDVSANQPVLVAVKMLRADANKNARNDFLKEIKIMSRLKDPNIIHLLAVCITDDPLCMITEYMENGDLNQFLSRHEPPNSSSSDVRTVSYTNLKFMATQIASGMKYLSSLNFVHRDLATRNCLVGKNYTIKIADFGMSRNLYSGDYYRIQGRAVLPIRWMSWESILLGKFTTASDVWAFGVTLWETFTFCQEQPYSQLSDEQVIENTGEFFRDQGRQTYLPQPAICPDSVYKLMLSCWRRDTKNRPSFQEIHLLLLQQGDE
Procedure, shortened: as §1

[3] = biological target: T2, DDR2; experiment: DDR2 cell based assay (phospho-ELISA in HEK293T-DDR2 recombinant cells); parameters: expressed in transfected cells; host or cells: HEK293T-DDR2 recombinant cells; conditions: bovine Type II Collagen 50 μg/ml
Protocol: The inhibition of DDR2 phosphorylation by compounds was evaluated in HEK293T-DDR2 recombinant cells by phospho-ELISA assay. Briefly, HEK293T-DDR2 cells were seeded in poly-D-lysine-coated 24-well plates at a density of 250.000 cells/well and incubated for 1.5 hours at 37° C. and 5% CO2 in DMEM+10% FBS. After that, the medium was changed to serum-free DMEM and cells were incubated for 3 hours. Then. test compounds were added at different concentrations 30 minutes before stimulation with bovine Type II Collagen at 50 μg/ml for further 3 hours. For DDR2 phospho-ELISA assay (DuoSet IC Human Phospho-DDR2; R&D Systems), protein extracts were obtained by adding 60 μl/well of lysis buffer prepared according to the manufacturer's instructions. Protein concentration in the samples was determined by BCA assay and the levels of phospho-DDR2 were determined following R&D Systems indications. Raw data were normalized to maximal inhibition control (0% for normalization) and positive control (100% for normalization; cells treated with […] collagen II) and IC50 parameters were calculated in GraphPad Prism 8.0 software, using sigmoidal dose-response curve fitting with variable slope.

[4] = biological target: T1, DDR1; experiment: DDR1 cell based assay (PathHunter U2OS DDR1 assay); parameters: host or cells: U2OS-DDR1 (PathHunter); conditions: U2OS-DDR1 cells, bovine Type II Collagen 20 μg/ml
Procedure, shortened: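 Receptor activation measured by enzyme-fragment complementation luminescence in engineered U2OS cells. Compound added 30 min before overnight challenge with 20 μg/ml bovine collagen II; data scaled between vehicle and collagen-stimulated controls, IC50 derived by four-parameter variable-slope fitting.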

T1 sequence (Q08345 19-913): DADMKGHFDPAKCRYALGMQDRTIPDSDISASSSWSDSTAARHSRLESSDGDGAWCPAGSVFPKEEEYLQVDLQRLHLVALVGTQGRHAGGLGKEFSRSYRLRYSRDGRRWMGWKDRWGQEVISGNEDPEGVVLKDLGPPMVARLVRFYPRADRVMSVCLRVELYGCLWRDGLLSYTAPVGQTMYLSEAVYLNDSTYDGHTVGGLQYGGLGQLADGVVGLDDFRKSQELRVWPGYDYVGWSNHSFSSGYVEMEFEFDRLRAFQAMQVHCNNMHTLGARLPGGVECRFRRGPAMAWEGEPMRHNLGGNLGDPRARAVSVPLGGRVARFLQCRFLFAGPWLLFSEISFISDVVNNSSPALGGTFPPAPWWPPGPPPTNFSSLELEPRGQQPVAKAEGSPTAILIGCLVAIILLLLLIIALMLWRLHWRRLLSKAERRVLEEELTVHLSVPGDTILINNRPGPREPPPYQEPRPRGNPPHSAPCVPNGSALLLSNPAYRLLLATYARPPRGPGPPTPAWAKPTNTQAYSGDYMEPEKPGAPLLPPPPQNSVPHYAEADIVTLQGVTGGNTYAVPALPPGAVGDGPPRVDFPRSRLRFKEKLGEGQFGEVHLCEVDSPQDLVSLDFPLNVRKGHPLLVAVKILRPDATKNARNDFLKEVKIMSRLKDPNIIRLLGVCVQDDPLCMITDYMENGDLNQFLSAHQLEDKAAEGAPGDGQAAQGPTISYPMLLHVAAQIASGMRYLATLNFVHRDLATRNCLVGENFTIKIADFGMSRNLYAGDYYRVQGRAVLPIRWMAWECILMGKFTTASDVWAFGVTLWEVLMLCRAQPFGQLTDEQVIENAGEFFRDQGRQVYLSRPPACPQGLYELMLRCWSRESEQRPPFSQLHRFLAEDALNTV

Row | Ki [1] | Ki [2] | IC50 [3] | IC50 [4] | Compound
1 | < 0.025 µM | < 0.025 µM | < 0.025 µM | < 0.025 µM | O=C(Nc1cncc(C(F)(F)F)c1)c1csc2c1CCN(Cc1cnc3ccnn3c1)C2 [Example 152, 6-(pyrazolo[1,5-a]pyrimidin-6-ylmethyl)-N-(5-(trifluoromethyl)pyridin-3-yl)-4,5,6,7-tetrahydrothieno[2,3-c]pyridine-3-carboxamide]
2 | < 0.025 µM | < 0.025 µM | – | 0.025 to 0.05 µM | CC(C)(c1cc(NC(=O)c2csc3c2CCN(C(=O)c2cnn4ccncc24)C3)no1)C(F)(F)F [Example 126, 6-(pyrazolo[1,5-a]pyrazine-3-carbonyl)-N-(5-(1,1,1-trifluoro-2-methylpropan-2-yl)isoxazol-3-yl)-4,5,6,7-tetrahydrothieno[2,3-c]pyridine-3-carboxamide]
3 | < 0.025 µM | < 0.025 µM | – | 0.025 to 0.05 µM | CN(C)[C@@H]1CCN(Cc2cc(NC(=O)c3csc4c3CCN(Cc3cnc5ccnn5c3)C4)cc(C(F)(F)F)c2)C1 [Example 161, (R)-N-(3-((3-(dimethylamino)pyrrolidin-1-yl)methyl)-5-(trifluoromethyl)phenyl)-6-(pyrazolo[1,5-a]pyrimidin-6-ylmethyl)-4,5,6,7-tetrahydrothieno[2,3-c]pyridine-3-carboxamide]
4 | < 0.025 µM | < 0.025 µM | – | 0.025 to 0.05 µM | O=C(Nc1cncc(C(F)(F)F)c1)c1csc2c1CCN(Cc1ncnc3[nH]ccc13)C2 [Example 155, 6-((7H-pyrrolo[2,3-d]pyrimidin-4-yl)methyl)-N-(5-(trifluoromethyl)pyridin-3-yl)-4,5,6,7-tetrahydrothieno[2,3-c]pyridine-3-carboxamide]
5 | < 0.025 µM | < 0.025 µM | – | < 0.025 µM | CC1CN(C(=O)c2cnc3ccccn23)Cc2scc(C(=O)Nc3cccc(C(F)(F)F)c3)c21 (stereo not shown) [Example 185, 6-(imidazo[1,2-a]pyridine-3-carbonyl)-4-methyl-N-(3-(trifluoromethyl)phenyl)-4,5,6,7-tetrahydrothieno[2,3-c]pyridine-3-carboxamide]
6 | < 0.025 µM | < 0.025 µM | – | < 0.025 µM | O=C(Nc1cc(OCCN2CCCC2)cc(C(F)(F)F)c1)c1csc2c1CCN(Cc1cnc3[nH]ncc3c1)C2 [Example 164, 6-((1H-pyrazolo[3,4-b]pyridin-5-yl)methyl)-N-(3-(2-(pyrrolidin-1-yl)ethoxy)-5-(trifluoromethyl)phenyl)-4,5,6,7-tetrahydrothieno[2,3-c]pyridine-3-carboxamide]
7 | < 0.025 µM | < 0.025 µM | – | 0.025 to 0.05 µM | O=C(Nc1cc(CN2CCOCC2)cc(C(F)(F)F)c1)c1csc2c1CCN(C(=O)c1cnn3ccncc13)C2 [Example 172, N-(3-(morpholinomethyl)-5-(trifluoromethyl)phenyl)-6-(pyrazolo[1,5-a]pyrazine-3-carbonyl)-4,5,6,7-tetrahydrothieno[2,3-c]pyridine-3-carboxamide]

The next lines start with the molecule.

Row | Compound | Ki [1] | Ki [2] | IC50 [3] | IC50 [4]
8 | Cc1ccc(-n2nc(C(C)(C)C)cc2NC(=O)c2csc3c2CCN(Cc2cnc4[nH]ncc4c2)C3)cc1 [Example 75, 6-((1H-pyrazolo[3,4-b]pyridin-5-yl)methyl)-N-(3-(tert-butyl)-1-(p-tolyl)-1H-pyrazol-5-yl)-4,5,6,7-tetrahydrothieno[2,3-c]pyridine-3-carboxamide] | < 0.025 µM | < 0.025 µM | < 0.025 µM | < 0.025 µM
9 | CC1Cc2c(C(=O)Nc3cccc(C(F)(F)F)c3)csc2CN1Cc1cnc2cnccn12 (single isomer, unassigned) [Example 104, 6-(imidazo[1,2-a]pyrazin-3-ylmethyl)-5-methyl-N-(3-(trifluoromethyl)phenyl)-4,5,6,7-tetrahydrothieno[2,3-c]pyridine-3-carboxamide] | < 0.025 µM | < 0.025 µM | 0.05 to 0.08 µM | < 0.025 µM
10 | CC1c2scc(C(=O)Nc3cccc(C(F)(F)F)c3)c2CCN1Cc1cnc2cnccn12 (stereo not shown) [Example 103, 6-(imidazo[1,2-a]pyrazin-3-ylmethyl)-7-methyl-N-(3-(trifluoromethyl)phenyl)-4,5,6,7-tetrahydrothieno[2,3-c]pyridine-3-carboxamide] | < 0.025 µM | < 0.025 µM | 0.025 to 0.05 µM | < 0.025 µM
11 | CN1CCN(Cc2cc(NC(=O)c3csc4c3CCN(C(=O)c3cnc5ccccn35)C4)cc(C(F)(F)F)c2)CC1=O [Example 59, 6-(imidazo[1,2-a]pyridine-3-carbonyl)-N-(3-((4-methyl-3-oxopiperazin-1-yl)methyl)-5-(trifluoromethyl)phenyl)-4,5,6,7-tetrahydrothieno[2,3-c]pyridine-3-carboxamide] | 0.025 to 0.05 µM | 0.025 to 0.05 µM | – | 0.025 to 0.05 µM
12 | O=C(Nc1cncc(OC(F)F)c1)c1csc2c1CCN(C(=O)c1cnn3ccncc13)C2 [Example 125, N-(5-(difluoromethoxy)pyridin-3-yl)-6-(pyrazolo[1,5-a]pyrazine-3-carbonyl)-4,5,6,7-tetrahydrothieno[2,3-c]pyridine-3-carboxamide] | < 0.025 µM | < 0.025 µM | – | 0.025 to 0.05 µM
13 | CN(Cc1cc(NC(=O)c2csc3c2CCN(C(=O)c2cnc4ccccn24)C3)cc(C(F)(F)F)c1)C1COC1 [Example 53, 6-(imidazo[1,2-a]pyridine-3-carbonyl)-N-(3-((methyl(oxetan-3-yl)amino)methyl)-5-(trifluoromethyl)phenyl)-4,5,6,7-tetrahydrothieno[2,3-c]pyridine-3-carboxamide] | < 0.025 µM | < 0.025 µM | – | 0.05 to 0.08 µM
14 | CC(C)(C)c1cc(NC(=O)c2csc3c2CCN(C(=O)c2cnc4ccccn24)C3)on1 [Example 34, N-(3-(tert-butyl)isoxazol-5-yl)-6-(imidazo[1,2-a]pyridine-3-carbonyl)-4,5,6,7-tetrahydrothieno[2,3-c]pyridine-3-carboxamide] | < 0.025 µM | < 0.025 µM | – | < 0.025 µM
15 | CC(C)(C)c1cc(NC(=O)c2csc3c2CCN(C(=O)c2cnn4ccncc24)C3)on1 [Example 113, N-(3-(tert-butyl)isoxazol-5-yl)-6-(pyrazolo[1,5-a]pyrazine-3-carbonyl)-4,5,6,7-tetrahydrothieno[2,3-c]pyridine-3-carboxamide] | < 0.025 µM | < 0.025 µM | – | 0.025 to 0.05 µM
16 | CC1c2scc(C(=O)Nc3cc(C(C)(C)C)nn3C)c2CCN1C(=O)c1cnc2ccccn12 (stereo not shown) [Example 99, N-(3-(tert-butyl)-1-methyl-1H-pyrazol-5-yl)-6-(imidazo[1,2-a]pyridine-3-carbonyl)-7-methyl-4,5,6,7-tetrahydrothieno[2,3-c]pyridine-3-carboxamide] | < 0.025 µM | 0.05 to 0.08 µM | – | 0.025 to 0.05 µM
17 | O=C(Nc1cccc(C(F)(F)F)c1)c1csc2c1CCN(C(=O)c1cnc3[nH]ccc3c1)C2 [Example 68, 6-(1H-pyrrolo[2,3-b]pyridine-5-carbonyl)-N-(3-(trifluoromethyl)phenyl)-4,5,6,7-tetrahydrothieno[2,3-c]pyridine-3-carboxamide] | < 0.025 µM | < 0.025 µM | – | 0.025 to 0.05 µM
